The text below walks through data of patent publication US9260710B2, “Photocleavable linker” (City of Hope, priority 2012, dated 2016).

Assay [1] relates to GFP-LC8 trap transfected Cos1/Cos7 cells. Kind of assay: Organelle dispersion and microtubule array in cells expressing the LC8 trap. The class given is cell-based. To be noted: expression of the trap alone, no AP20187. An excerpt:
In vivo effect of Dynein LC and IC Traps. As tests for LC function, we evaluated the effects of the traps on early endosome, lysosome, and Golgi distribution, as well as mitotic progression. First, we fused green fluorescent protein (GFP) to the N-terminus of both FKBP-traps to identify transfected cells. Next, we transfected Cos1, Cos7, or HeLa cells with either trap or a GFP-FKBP control and labeled endosomes, lysosomes and Golgi with EEA1, LAMP2 and GM130 markers, respectively (FIGS. 12A-12C). […] The percentage of cells expressing the GFPLC8 or GFP-TcTex1 trap with dispersed endosomes was 14.7±1.5% and 13.3±1.5%, respectively, as compared to 11.7±3.5% and 10.3±3.5% for non-transfected cells and cells that expressed a GFP-FKBP control, respectively. […] After 8 h of treatment with AP20187, we observed greater than 50% dispersion of the three organelle types for each trap.
To ensure the AP20187 concentration was not limiting, we followed the LC8-trap-induced dispersion of lysosomes as a function of AP20187 concentration after 8 h. […] For the TcTex1-trap, we observed efficient endosome, lysosome and Golgi dispersion at AP20187 concentrations of 1 μM or greater.
Kinetic Analysis Separates Dynein Functions. A major purpose for developing these traps is to provide immediate inhibition of protein function and follow the cellular response from this perturbation to gain new insight. Thus, we monitored the fraction of cells with dispersed organelles as a function of time. After induction of dimerization by AP20187, effects on both early endosome and lysosome distribution were detectable at 10 min, and leveled off at ˜2 h (FIGS. 14A-14B). […] The most rapid effect was observed on lysosomes in cells expressing the LC8 trap. In striking contrast, Golgi dispersal using either trap occurred over a much longer time-course, requiring 8 h after induction of dimerization to reach similar levels of dispersion as for endosomes and lysosomes. Twenty-four hours after addition of AP20187, the percentage of cells with dispersed Golgi reached levels greater than 85%.

Assay [2] relates to TcTex1. As to the kind of experiment: Trap specificity by native PAGE, TcTex1. The class given is binding. To be noted: with or without AP20187 treatment. From the text: In addition, there is no evidence that LC8 can bind proteins bearing a TcTex1 sequence or vice versa (e.g., LC8 binds to BimEL, Pak1, nNOS, etc.; TcTex1 binds to Doc2α, PTHR receptor, etc.50).
The target in assay [3] is T1, LC8 (Homo sapiens, UniProt P63167).
T1 construct: we monitored the distribution of Golgi in cells subjected to LC8 RNAi; endogenous in cells
Kind of assay: Defective mitotic spindle morphology. The class given is cell-based. The settings on record: transfected cells. On the procedure: As a test for effects on cytoplasmic dynein functions that are distinct from vesicular transport, we monitored mitotic behavior in cells expressing either the LC8- or TcTex1-traps. We observed little effect on either mitotic index or the fraction of mitotic cells at discrete mitotic stages with either trap (data not shown). […] Finally, similar studies were carried out using the IC trap. As before, we observed little or no change in the dispersion of endosomes and Golgi apparatus before AP20187 treatment. Induction of dimerization through the addition of AP20187 (1 μM) produced immediate changes in both organelles. After 4 h, 81+4% of cells contained dispersed endosomes and 68+3% of cells contained dispersed Golgi. […] The precise reason for this difference is not clear; however, currently, we attribute this to a change in the cytoskeleton, but this must still be verified. We are also in the process of measuring the effect of sequestering the dynein IC on mitotic behavior.

T1 sequence (P63167 whole entry): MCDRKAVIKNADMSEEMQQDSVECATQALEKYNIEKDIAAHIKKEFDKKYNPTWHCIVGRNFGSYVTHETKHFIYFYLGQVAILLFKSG

“GFPLC8: green fluorescent protein fused to the N-terminus of the FKBP LC8-trap”: the “percentage of cells with dispersed endosomes” value in assay [1] worked out at 14.7±1.5%.

Take “LC8-trap: LC8 binding region of the dynein IC (residues 125-137, rat IC2C) fused to the C-terminus of FKBP”: in assay [2], the “binding to TcTex1” value was “does not bind”. Besides, the “defective mitotic spindle morphology” value in assay [3] is 20+2%.
